According to US11077090B2, “Compounds and compositions and uses thereof” (Sunovion Pharmaceuticals Inc., priority 2016, dated 2021):
Structures can show the parent of a compound that is named as a salt.

Test system: compound-treated mice
Assay: Neuropharmacological assay (SmartCube): behavioral activity signature and minimal effective dose
Assay type: in vivo
Details: for minimal effective dose: Mus musculus, ip, read-out: Potency: minimal effective dose (MED), binned; for AD: ADHD (probability of activity signature) / AG: analgesic (probability of activity signature) / AX: anxiolytic (probability of activity signature) / CE: cognitive enhancer (probability of activity signature) / DP: anti-depressant (probability of activity signature) / MS: mood stabilizer (probability of activity signature) / PS: anti-psychotic (probability of activity signature) / SD: sedative hypnotic (probability of activity signature) / UN: uncharacterized CNS activity (probability of activity signature): i.p. 15 min before test, most efficacious dose(s)
From the text: Neurosci. 2011 Sep. 9; 5:103 (doi: 10.3389/fnins.2011.00103) (“Roberds”). As reported in Roberds, because psychiatric diseases generally result from disorders of cell-cell communication or circuitry, intact systems are useful in detecting improvement in disease-relevant endpoints. These endpoints are typically behavioral in nature, often requiring human observation and interpretation. To facilitate testing of multiple compounds for behavioral effects relevant to psychiatric disease, PsychoGenics, Inc. (Tarrytown, N.Y., “PGI”) developed SmartCube™, an automated system in which behaviors of compound-treated mice are captured by digital video and analyzed with computer algorithms. (D. Brunner et al., Drug Discov. Today 2002, 7:S107-S112). PGI Analytical Systems uses data from SmartCube™ to compare the behavioral signature of a test compound to a database of behavioral signatures obtained using a large set of diverse reference compounds. (The composition of the database as well as validation of the method is further described in Roberds). In this way, the neuropharmacological effects of a test compound can be predicted by similarity to major classes of compounds, such as antipsychotics, anxiolytics and antidepressants.
The SmartCube™ system produces an activity signature indicating the probability that the activity of the test compound at the administered dose matches a given class of neuropharmacological agents. (See, e.g., Roberds, FIGS. 2 and 3). The test compound is simultaneously compared against multiple classes of agents; thus, a separate probability is generated for each behavioral effect measured (e.g., anxiolytic activity, analgesic activity, etc.). In the table below, these probabilities are reported for each behavioral effect measured as follows:
where LOQ is the limit of quantification.
Provided compounds were dissolved in a mixture of Pharmasolve™ (N-methyl-2-pyrrolidone), polyethylene glycol and propylene glycol, and were injected i.p. 15 min. before the behavioral test. For each compound, injections were administered at 3 different doses. For each behavioral effect measured, results for the most efficacious dose(s) are presented. In the table below, DP: anti-depressant; AX: anxiolytic; SD: sedative hypnotic; PS: anti-psychotic; MS: mood stabilizer; AD: ADHD; CE: cognitive enhancer; AG: analgesic; UN: uncharacterized CNS activity.
The potency of many of the compounds in the table was also determined in the SmartCube™ system. Test compounds were routinely examined at dose levels of 0.3, 1, 3, 10 and 30 mg per kg (mpk), although the dose range was increased or decreased if necessary to obtain a full dose response curve. A compound's minimal effective dose (MED) is a measure of the compounds potency. The MED was defined as the dose (in mpk) having 50% or more total activity in SmartCube.

[1] = MED = dose having 50% or more total activity

Row | SMILES | minimal effective dose [1] [mg/kg] | AD: ADHD (probability of activity signature) | AG: analgesic (probability of activity signature) | AX: anxiolytic (probability of activity signature) | CE: cognitive enhancer (probability of activity signature) | DP: anti-depressant (probability of activity signature) | MS: mood stabilizer (probability of activity signature) | PS: anti-psychotic (probability of activity signature) | SD: sedative hypnotic (probability of activity signature) | UN: uncharacterized CNS activity (probability of activity signature) | MS: mood stabilizer (probability of activity signature) (hydrochloride) | SD: sedative hypnotic (probability of activity signature) (hydrochloride) | Potency: minimal effective dose (MED), binned (MED = dose having 50% or more total activity, hydrochloride)
1 | CN[C@@H]1CO[C@H](C)c2ccccc21 (relative stereo) [Example 240, cis-N,1-dimethylisochroman-4-amine hydrochloride] | 3 to 10 | + (LOQ ≤ + <5%) | ++ (5% ≤ ++ <25%) | ++ (5% ≤ ++ <25%) | ++ (5% ≤ ++ <25%) | ++ (5% ≤ ++ <25%) | + (LOQ ≤ + <5%) | ++ (5% ≤ ++ <25%) | ++ (5% ≤ ++ <25%) | +++ (25% ≤ +++ <50%) |  |  | 
2 | CC(C)[C@@H]1OCc2ccccc2[C@@H]1N (relative stereo) [Example 256, cis-3-Isopropylisochroman-4-amine hydrochloride] | 3 to 10 | ++ (5% ≤ ++ <25%) | + (LOQ ≤ + <5%) | ++ (5% ≤ ++ <25%) | + (LOQ ≤ + <5%) | + (LOQ ≤ + <5%) | ++ (5% ≤ ++ <25%) | +++ (25% ≤ +++ <50%) | ++ (5% ≤ ++ <25%) | ++ (5% ≤ ++ <25%) |  |  | 
3 | CC(C)[C@@H]1OCc2ccccc2[C@H]1N.Cl (relative stereo) [Example 257, trans-3-Isopropylisochroman-4-amine hydrochloride] | 3 to 10 | + (LOQ ≤ + <5%) | + (LOQ ≤ + <5%) | + (LOQ ≤ + <5%) | + (LOQ ≤ + <5%) | ++ (5% ≤ ++ <25%) |  | ++ (5% ≤ ++ <25%) |  | ++ (5% ≤ ++ <25%) | ++ (5% ≤ ++ <25%) | +++ (25% ≤ +++ <50%) | 
4 | CC(C)[C@@H]1OCc2ccccc2[C@H]1N.Cl (relative stereo) [Example 274, trans-3-Isopropylisochroman-4-amine hydrochloride] |  | + (LOQ ≤ + <5%) | + (LOQ ≤ + <5%) | + (LOQ ≤ + <5%) | + (LOQ ≤ + <5%) | ++ (5% ≤ ++ <25%) |  | ++ (5% ≤ ++ <25%) |  | ++ (5% ≤ ++ <25%) | +++ (25% ≤ +++ <50%) | ++ (5% ≤ ++ <25%) | A (≤3 mpk)
5 | Cl.N[C@H]1c2ccccc2CO[C@H]1CF (relative stereo) [Example 275, cis-3-(fluoromethyl)isochroman-4-amine hydrochloride] | 3 to 10 | + (LOQ ≤ + <5%) | + (LOQ ≤ + <5%) | + (LOQ ≤ + <5%) | + (LOQ ≤ + <5%) | + (LOQ ≤ + <5%) | ++ (5% ≤ ++ <25%) | + (LOQ ≤ + <5%) | +++ (25% ≤ +++ <50%) | ++ (5% ≤ ++ <25%) |  |  | 
